Consider 17 compounds from patent publication US6552012B2 (priority 2000, dated 2003).

Molecules are shown by their SMILES. Structures can show the parent of a compound that is named as a salt. Where two headings read alike, the source gives them in different places. A value given as a limit tells only on which side of the number the result lay.

Series [1] concerns the target T1, nAChRs comprised of α4 and β2 subunits (Rattus norvegicus, UniProt P09483+P12390).
T1 construct: Cerebral corticies from male Wistar rats (150-250 g) are homogenised; from tissue; host or cells: rat cerebral cortex membranes (male Wistar)
As to the kind of experiment: In vitro inhibition of 3H-cytisine binding (Assay I). As to the method:
In Vitro inhibition of ^3H-cytisine binding (Assay I)
The predominant subtype with high affinity for nicotine is comprised of α4 and β2 subunits. nAChRs of the latter type can selectively be labelled by the nicotine agonist ^3H-cytisine.
Preparations are performed at 0-4° C. unless otherwise indicated. Cerebral corticies from male Wistar rats (150-250 g) are homogenised for 20 seconds in 15 ml Tris, HCl (50 mM, pH 7.4) containing 120 mM NaCl, 5 mM KCl, 1 mM MgCl2 and 2.5 mM CaCl2 using an Ultra-Turrax homogeniser. The homogenate is centrifuged at 27,000×g for 10 minutes. The supernatant is discarded and the pellet is resuspended in fresh buffer and centrifuged a second time. The final pellet is resuspended in fresh buffer (35 ml per g of original tissue) and used for binding assays.
Aliquots of 500 μl homogenate are added to 25 μl of test solution and 25 μl of ^3H-cytisine (1 nM, final concentration), mixed and incubated for 90 minutes at 2° C. Non-specific binding is determined using (−)-nicotine (100 μM, final concentration). After incubation the samples are added 5 ml of ice-cold buffer and poured directly onto Whatman GF/C glass fibre filters under suction and immediately washed with 2×5 ml ice-cold buffer. The amount of radioactivity on the filters is determined by conventional liquid scintillation counting. Specific binding is total binding minus non-specific binding.

The target in series [2] is T2, nAChR formed by the α7 subunit isoform (Rattus norvegicus, UniProt Q05941).
T2 construct: Cerebral cortices from male Wistar rats (150-250 g) are homogenised; from tissue; host or cells: rat cerebral cortex membranes (male Wistar)
In words: biochemical. It counts as binding. The following applies: read-out: Assay III IC50.

The mark [3] stands for this setting: 3H-cytisine 1 nM, rat cerebral cortex homogenate, read-out: Assay I IC50.

T1 sequence (P09483 31-630): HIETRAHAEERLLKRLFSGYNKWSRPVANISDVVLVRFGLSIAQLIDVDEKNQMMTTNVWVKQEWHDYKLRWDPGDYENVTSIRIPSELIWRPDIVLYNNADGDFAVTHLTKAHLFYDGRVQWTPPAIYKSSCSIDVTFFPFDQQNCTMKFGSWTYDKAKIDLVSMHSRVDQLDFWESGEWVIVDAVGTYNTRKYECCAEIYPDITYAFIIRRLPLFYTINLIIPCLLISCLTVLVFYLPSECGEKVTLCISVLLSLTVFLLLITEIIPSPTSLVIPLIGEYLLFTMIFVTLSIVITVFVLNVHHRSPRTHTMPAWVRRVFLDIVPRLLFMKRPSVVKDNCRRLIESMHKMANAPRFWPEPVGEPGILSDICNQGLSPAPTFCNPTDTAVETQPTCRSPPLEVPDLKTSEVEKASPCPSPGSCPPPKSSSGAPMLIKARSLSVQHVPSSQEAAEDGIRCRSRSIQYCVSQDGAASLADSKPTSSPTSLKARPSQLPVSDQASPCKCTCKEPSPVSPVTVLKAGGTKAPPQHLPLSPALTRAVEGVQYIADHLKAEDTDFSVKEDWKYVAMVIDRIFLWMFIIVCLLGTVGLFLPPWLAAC
T1 sequence (P12390 25-500): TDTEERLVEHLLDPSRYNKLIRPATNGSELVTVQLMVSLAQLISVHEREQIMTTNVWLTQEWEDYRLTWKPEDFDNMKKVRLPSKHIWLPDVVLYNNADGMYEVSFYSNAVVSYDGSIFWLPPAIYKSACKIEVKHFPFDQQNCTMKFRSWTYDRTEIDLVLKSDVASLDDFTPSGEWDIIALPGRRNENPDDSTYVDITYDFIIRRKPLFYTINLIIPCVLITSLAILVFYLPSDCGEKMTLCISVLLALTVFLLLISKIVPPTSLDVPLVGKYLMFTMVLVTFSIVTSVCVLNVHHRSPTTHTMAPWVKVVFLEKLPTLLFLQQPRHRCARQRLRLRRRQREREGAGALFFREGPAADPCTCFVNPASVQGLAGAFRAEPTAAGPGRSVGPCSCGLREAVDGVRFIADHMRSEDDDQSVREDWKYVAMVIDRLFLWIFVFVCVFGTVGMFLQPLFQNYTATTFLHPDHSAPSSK
T2 sequence (Q05941 23-502): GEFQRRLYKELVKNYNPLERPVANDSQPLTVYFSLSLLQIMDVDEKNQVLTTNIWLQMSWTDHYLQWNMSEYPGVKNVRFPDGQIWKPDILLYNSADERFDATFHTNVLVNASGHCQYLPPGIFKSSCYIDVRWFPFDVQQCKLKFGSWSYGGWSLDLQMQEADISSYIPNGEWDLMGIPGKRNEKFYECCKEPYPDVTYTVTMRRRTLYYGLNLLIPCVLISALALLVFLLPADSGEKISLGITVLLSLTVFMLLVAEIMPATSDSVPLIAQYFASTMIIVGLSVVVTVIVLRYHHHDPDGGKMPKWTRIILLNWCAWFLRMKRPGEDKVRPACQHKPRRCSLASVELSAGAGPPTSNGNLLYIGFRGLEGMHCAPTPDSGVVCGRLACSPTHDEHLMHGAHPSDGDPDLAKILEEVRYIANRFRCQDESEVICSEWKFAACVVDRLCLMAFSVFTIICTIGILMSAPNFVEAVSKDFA

Consider `CN1C2CCC1CN(c1ccc(Cl)nn1)CC2` (stereo not drawn) [3-[6-Chloro-(3-pyridazinyl)]-9-methyl-3,9-diazabicyclo-[4.2.1]-nonane Fumaric Acid Salt], for which the figures for the IC50 in series [1] and in series [2] were 1200 nM and 10000 nM, respectively.
Take `C=COc1cncc(N2CCC3CCC(C2)N3C)c1` (stereo not drawn) [3-(5Ethenyloxy-3-pyridyl)-9-methyl-3,9-diazabicyclo-[4.2.1]-nonane Fumaric Acid Salt]: the concentration for half-maximal inhibition (IC50) in series [1] (setting [3]) came out at 3 nM; in series [2] it was 5800 nM.
`COc1cncc(N2C3CCNCC2CC3)c1` (stereo not drawn) (as salt: fumaric acid salt) [9-[5-Methoxy)-(3-pyridyl)]-3,9-diazabicyclo-[4.2.1]-nonane Fumaric Acid Salt] showed a melting point of 183 to 185 °C.
In the case of `Clc1ccc(N2CCC3CCC(C2)N3)nn1` (stereo not drawn) [3-[6-Chloro-(3-pyridazinyl)]-3,9-diazabicyclo-[4.2.1]-nonane Fumaric Acid Salt], the 50% inhibitory concentration (IC50) was found to be 20 nM in series [1] and 1400 nM in series [2].
For `CCOc1cc(N2CCC3CCC(C2)N3C)cnc1Cl.O=C(O)/C=C/C(=O)O` (stereo not drawn), the melting point was 208.6 °C.
Turning to `CCOc1cncc(N2C3CCNCC2CC3)c1` (stereo not drawn) [9-[5-Ethoxy-(3-pyridyl)]-3,9-diazabicyclo-[4.2.1]-nonane Fumaric Acid Salt], the IC50 in series [1] (setting [3]) came out at 3 nM; in series [2], 2700 nM.
Take `CC=COc1cncc(N2CCC3CCC(C2)N3C)c1` (stereo not drawn) [3-[5-(Propyl-1-en-oxy)-3-pyridyl]-9-methyl-3,9-diazabicyclo-[4.2.1]-nonane Fumaric Acid Salt]: the IC50 in series [1] turned out to be 5 nM; in series [2], 10000 nM.
`C=COc1cncc(N2CCC3CCC(C2)N3)c1.O=C(O)/C=C/C(=O)O` (stereo not drawn) [3-(5-Ethenyloxy-3-pyridyl)-3,9-diazabicyclo-[4.2.1]-nonane Fumaric Acid Salt] displayed a melting point of 145 to 147 °C. In series [1] (setting [3]), the IC50 was 2 nM. In addition, the IC50 in series [2] was 1500 nM.
On to `CCOc1cncc(N2CCC3CCC(C2)N3C)c1` (stereo not drawn) [3-[5-Ethoxy-(3-pyridyl)]-9-methyl-3,9-diazabicyclo-[4.2.1]-nonane bis-fumaric Acid Salt], for which the half-inhibitory concentration (IC50) is 5 nM in series [1] (setting [3]) and 8100 nM in series [2].
For `CN1C2CCCC1CN(c1cncc(Br)c1)CC2.O=C(O)/C=C/C(=O)O` (stereo not drawn), the melting point was 162.5 to 164.5 °C.
`CC=COc1cncc(N2CCC3CCC(C2)N3)c1` (stereo not drawn) [3-[5-(Propyl-1-en-oxy)-3-pyridyl]-3,9-diazabicyclo-[4.2.1]-nonane bis Fumaric Acid Salt]: the IC50 in series [1] was found to be 2 nM; in series [2], 1800 nM.
In the case of `COc1cncc(N2C3CCNCC2CC3)c1` (stereo not drawn) [9-[5-Methoxy)-(3-pyridyl)]-3,9-diazabicyclo-[4.2.1]-nonane Fumaric Acid Salt], the IC50 in series [1] came to 150 nM; in series [2], 3000 nM.
Compound `CN1C2CCC1CN(c1cncc(Cl)c1)CC2.O=C(O)/C=C/C(=O)O` (stereo not drawn) returned a melting point of 181 to 182 °C.
On to `CC=COc1cncc(N2CCC3CCC(C2)N3)c1` (stereo not drawn) (as salt: fumaric acid salt) [3-[5-(Propyl-1-en-oxy)-3-pyridyl]-3,9-diazabicyclo-[4.2.1]-nonane bis Fumaric Acid Salt], for which the melting point is 144 to 146 °C.
On to `CC=COc1cncc(N2C3CCNCC2CC3)c1` (stereo not drawn) [9-[5-(Propyl-1-en-oxy)-(3-pyridyl)]-3,9-diazabicyclo-[4.2.1]-nonane Fumaric Acid Salt], for which the figures for the IC50 in series [1] (setting [3]) and in series [2] were 3 nM and 2700 nM, respectively.
The compound `CCOc1cncc(N2CCC3CCC(C2)N3)c1.O=C(O)/C=C/C(=O)O` (stereo not drawn) [3-(5-Ethoxy-3-pyridyl)-3,9-diazabicyclo-[4.2.1]-nonane Fumaric Acid Salt] had a melting point of 143 to 146 °C. In addition, the IC50 in series [1] (setting [3]) was less than 30 nM. Also, in series [2], the IC50 was 6200 nM.
In the case of `CC=COc1cncc(N2C3CCNCC2CC3)c1` (stereo not drawn) (as salt: fumaric acid salt) [9-[5-(Propyl-1-en-oxy)-(3-pyridyl)]-3,9-diazabicyclo-[4.2.1]-nonane Fumaric Acid Salt], the melting point was in the range of 161.5 to 163 °C.

In general, IC50 refers to the concentration at which inhibition is half-maximal. A word on the melting point: it is the temperature of the solid-liquid transition.
